In ChEMBL document CHEMBL5291721, “A preclinical secondary pharmacology resource illuminates target-adverse drug reaction associations of marketed drugs” (Nat Commun, 2023):

Legend:
[1] = biological target: Beta-1 adrenergic receptor (Homo sapiens, UniProt P08588); type: functional
[2] = biological target: Glutamate receptor ionotropic, NMDA 1 (Rattus norvegicus, UniProt P35439)
Histamine H3 receptor = Histamine H3 receptor (Homo sapiens, UniProt Q9Y5N1)
[3] = biological target: T1, 5-hydroxytryptamine receptor 1A (Homo sapiens, UniProt P08908); type: functional, cell-based
T1 sequence (P08908 whole entry): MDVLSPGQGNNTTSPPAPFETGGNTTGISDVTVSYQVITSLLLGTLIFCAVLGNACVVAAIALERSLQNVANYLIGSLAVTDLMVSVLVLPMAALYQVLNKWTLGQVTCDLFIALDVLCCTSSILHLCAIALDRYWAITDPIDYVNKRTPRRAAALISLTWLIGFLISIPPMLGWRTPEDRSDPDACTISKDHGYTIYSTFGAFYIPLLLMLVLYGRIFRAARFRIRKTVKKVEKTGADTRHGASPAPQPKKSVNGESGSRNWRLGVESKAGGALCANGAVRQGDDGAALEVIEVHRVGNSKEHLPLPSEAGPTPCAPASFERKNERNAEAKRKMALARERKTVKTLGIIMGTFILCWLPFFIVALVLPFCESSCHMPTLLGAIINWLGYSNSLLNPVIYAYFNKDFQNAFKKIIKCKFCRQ

[4] = biological target: 5-hydroxytryptamine receptor 2B (Homo sapiens, UniProt P41595); type: functional, cell-based
[5] = biological target: 5-hydroxytryptamine receptor 2A (Homo sapiens, UniProt P28223); type: functional, cell-based
Cannabinoid receptor 1 = Cannabinoid receptor 1 (Homo sapiens, UniProt P21554); type: functional, cell-based
[6] = biological target: T2, Alpha-2B adrenergic receptor (Homo sapiens, UniProt P18089)
T2 sequence (P18089 whole entry): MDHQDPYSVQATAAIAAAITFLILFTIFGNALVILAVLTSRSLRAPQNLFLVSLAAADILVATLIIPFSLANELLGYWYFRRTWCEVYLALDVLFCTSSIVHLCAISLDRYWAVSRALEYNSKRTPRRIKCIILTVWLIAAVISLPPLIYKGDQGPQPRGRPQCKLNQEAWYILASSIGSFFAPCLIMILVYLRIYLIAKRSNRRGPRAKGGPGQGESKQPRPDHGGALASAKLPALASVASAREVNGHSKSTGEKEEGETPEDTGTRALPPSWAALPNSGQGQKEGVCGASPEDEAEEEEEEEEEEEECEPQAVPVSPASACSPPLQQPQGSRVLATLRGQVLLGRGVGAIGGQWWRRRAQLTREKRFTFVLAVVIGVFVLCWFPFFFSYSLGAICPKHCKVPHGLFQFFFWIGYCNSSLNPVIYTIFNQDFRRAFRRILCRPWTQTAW

Histamine H1 receptor = Histamine H1 receptor (Homo sapiens, UniProt P35367)
[7] = biological target: T3, Alpha-1A adrenergic receptor (Homo sapiens, UniProt P35348); type: functional, cell-based
T3 sequence (P35348 whole entry): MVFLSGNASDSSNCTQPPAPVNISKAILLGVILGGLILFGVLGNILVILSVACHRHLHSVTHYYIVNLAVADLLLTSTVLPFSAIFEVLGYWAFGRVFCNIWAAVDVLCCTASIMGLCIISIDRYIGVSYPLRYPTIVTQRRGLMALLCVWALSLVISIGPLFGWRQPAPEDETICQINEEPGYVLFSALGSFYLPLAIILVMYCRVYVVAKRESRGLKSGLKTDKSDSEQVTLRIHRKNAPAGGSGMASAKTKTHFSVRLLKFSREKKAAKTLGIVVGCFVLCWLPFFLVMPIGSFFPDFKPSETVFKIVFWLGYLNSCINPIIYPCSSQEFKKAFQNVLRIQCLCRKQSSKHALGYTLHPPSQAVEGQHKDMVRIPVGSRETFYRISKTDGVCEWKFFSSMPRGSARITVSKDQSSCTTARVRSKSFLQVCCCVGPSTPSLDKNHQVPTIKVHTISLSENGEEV

[8] = biological target: Kappa-type opioid receptor (Homo sapiens, UniProt P41145)
[9] = biological target: Delta-type opioid receptor (Homo sapiens, UniProt P41143)
[10] = biological target: T4, Muscarinic acetylcholine receptor M2 (Homo sapiens, UniProt P08172); type: functional, cell-based
T4 sequence (P08172 whole entry): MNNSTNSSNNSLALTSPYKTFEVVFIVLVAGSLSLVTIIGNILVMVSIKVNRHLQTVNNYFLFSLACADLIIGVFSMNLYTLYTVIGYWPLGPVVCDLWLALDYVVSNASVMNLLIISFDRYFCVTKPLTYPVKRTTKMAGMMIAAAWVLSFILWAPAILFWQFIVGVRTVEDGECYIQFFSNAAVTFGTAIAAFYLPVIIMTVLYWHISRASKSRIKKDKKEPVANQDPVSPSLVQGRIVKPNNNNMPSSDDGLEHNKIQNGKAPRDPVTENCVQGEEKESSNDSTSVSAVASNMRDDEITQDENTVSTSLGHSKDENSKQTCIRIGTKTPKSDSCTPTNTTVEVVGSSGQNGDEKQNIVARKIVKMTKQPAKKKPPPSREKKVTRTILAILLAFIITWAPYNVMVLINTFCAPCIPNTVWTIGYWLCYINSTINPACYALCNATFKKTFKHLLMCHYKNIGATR

Endothelin-1 receptor = biological target: T5, Endothelin-1 receptor (Homo sapiens, UniProt P25101)
T5 sequence (P25101 whole entry): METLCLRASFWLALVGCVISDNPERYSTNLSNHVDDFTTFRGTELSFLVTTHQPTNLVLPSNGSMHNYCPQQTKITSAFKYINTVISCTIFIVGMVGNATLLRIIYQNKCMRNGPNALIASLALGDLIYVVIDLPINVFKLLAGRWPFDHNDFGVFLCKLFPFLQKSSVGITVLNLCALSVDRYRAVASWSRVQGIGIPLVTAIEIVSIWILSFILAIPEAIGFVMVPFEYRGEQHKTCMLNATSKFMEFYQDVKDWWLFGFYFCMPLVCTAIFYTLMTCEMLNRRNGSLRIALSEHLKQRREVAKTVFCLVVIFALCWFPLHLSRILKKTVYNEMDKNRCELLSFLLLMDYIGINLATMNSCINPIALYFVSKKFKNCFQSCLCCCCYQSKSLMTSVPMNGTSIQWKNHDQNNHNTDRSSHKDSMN
Note: assay procedure not described here.

Delta-type opioid receptor, sequence (P41143 whole entry): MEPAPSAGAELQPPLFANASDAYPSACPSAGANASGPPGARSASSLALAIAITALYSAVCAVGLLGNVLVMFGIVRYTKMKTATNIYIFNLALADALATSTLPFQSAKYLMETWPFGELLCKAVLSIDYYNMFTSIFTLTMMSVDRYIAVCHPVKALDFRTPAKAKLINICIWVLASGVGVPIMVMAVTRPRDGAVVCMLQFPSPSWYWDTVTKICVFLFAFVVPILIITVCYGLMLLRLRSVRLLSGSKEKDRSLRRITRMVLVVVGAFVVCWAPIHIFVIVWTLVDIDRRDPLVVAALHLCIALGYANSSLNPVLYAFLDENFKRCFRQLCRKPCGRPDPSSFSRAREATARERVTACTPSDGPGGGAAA
Histamine H3 receptor, sequence (Q9Y5N1 whole entry): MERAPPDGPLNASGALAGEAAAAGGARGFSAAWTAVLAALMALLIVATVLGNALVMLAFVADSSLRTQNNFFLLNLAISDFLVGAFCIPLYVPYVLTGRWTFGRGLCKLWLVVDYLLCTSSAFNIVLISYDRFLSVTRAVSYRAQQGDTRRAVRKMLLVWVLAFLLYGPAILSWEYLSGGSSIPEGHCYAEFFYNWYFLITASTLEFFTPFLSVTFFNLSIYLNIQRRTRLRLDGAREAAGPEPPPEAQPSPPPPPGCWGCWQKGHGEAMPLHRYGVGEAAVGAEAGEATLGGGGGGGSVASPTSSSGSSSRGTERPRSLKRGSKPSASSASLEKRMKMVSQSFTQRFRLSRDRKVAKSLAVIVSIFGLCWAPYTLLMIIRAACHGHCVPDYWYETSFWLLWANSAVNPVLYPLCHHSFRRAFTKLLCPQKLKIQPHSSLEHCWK
5-hydroxytryptamine receptor 2A, sequence (P28223 whole entry): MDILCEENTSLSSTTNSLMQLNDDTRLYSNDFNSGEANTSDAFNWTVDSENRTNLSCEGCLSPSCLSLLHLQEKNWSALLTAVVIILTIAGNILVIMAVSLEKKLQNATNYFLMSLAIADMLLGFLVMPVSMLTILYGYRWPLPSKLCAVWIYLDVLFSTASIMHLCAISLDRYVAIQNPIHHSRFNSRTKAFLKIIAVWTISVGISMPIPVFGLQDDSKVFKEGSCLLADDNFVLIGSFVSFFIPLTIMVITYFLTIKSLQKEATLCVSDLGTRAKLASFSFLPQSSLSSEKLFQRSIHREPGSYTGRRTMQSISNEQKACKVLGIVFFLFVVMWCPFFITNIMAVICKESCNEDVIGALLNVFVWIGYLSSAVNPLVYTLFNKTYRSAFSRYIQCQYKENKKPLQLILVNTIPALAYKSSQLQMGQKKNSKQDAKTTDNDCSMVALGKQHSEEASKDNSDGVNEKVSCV
Beta-1 adrenergic receptor, sequence (P08588 whole entry): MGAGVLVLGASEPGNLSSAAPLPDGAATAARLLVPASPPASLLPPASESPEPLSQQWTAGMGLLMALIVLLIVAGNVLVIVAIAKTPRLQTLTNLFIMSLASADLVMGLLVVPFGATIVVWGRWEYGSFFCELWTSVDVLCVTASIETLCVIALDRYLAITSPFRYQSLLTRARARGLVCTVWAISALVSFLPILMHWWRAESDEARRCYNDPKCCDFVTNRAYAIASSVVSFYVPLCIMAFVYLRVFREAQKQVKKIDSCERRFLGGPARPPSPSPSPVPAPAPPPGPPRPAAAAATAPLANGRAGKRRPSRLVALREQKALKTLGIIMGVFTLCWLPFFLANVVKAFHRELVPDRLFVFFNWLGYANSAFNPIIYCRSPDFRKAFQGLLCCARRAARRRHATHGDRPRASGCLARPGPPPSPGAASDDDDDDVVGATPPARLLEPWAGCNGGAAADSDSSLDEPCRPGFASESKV
Cannabinoid receptor 1, sequence (P21554 whole entry): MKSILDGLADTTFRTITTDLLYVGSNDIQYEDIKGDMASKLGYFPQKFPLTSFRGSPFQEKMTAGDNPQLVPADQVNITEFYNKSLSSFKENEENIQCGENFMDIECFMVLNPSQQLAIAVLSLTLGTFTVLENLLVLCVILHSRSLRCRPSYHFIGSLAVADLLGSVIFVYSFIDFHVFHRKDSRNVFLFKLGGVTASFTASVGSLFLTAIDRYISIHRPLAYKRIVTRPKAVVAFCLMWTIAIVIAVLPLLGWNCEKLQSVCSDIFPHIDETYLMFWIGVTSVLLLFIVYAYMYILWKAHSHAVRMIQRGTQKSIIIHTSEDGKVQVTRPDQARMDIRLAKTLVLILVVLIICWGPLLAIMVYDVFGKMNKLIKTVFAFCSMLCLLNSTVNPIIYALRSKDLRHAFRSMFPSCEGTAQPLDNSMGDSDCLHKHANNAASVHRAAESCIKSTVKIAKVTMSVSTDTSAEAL
Histamine H1 receptor, sequence (P35367 whole entry): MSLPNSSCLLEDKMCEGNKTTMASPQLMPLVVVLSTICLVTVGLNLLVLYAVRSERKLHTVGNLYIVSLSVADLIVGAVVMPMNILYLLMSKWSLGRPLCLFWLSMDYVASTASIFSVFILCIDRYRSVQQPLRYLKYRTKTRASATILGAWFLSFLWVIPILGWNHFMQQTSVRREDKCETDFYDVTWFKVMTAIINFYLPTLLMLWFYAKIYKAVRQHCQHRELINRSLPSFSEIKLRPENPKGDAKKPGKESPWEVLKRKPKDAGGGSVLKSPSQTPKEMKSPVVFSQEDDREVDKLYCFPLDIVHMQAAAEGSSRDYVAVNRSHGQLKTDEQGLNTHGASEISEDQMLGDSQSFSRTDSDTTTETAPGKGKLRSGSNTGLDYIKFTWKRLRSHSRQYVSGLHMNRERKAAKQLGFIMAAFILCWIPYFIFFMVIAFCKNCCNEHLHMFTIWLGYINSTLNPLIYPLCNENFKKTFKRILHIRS
5-hydroxytryptamine receptor 2B, sequence (P41595 whole entry): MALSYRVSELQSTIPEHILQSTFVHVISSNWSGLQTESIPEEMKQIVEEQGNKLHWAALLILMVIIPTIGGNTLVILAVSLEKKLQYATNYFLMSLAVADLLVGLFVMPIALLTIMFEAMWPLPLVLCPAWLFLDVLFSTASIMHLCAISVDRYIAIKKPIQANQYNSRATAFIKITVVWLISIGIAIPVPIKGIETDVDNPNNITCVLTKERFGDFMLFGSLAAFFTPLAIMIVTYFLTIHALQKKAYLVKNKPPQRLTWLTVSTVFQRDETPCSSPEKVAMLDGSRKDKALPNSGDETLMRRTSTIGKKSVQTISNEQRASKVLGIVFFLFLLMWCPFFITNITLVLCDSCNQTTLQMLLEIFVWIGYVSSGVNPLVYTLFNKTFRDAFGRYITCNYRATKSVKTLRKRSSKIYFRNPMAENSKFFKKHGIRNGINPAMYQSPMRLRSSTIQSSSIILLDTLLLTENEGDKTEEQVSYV
Kappa-type opioid receptor, sequence (P41145 whole entry): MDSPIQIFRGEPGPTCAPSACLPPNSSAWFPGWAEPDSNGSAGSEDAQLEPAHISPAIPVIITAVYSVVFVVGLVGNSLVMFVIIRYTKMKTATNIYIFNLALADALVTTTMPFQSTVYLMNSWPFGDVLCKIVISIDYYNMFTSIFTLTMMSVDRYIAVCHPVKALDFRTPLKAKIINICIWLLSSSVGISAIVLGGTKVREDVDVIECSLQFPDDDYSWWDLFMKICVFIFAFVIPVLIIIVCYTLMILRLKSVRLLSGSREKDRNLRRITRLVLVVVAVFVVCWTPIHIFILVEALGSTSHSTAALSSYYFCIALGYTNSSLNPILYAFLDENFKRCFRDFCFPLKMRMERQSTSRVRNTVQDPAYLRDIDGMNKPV

AC50 [1]: > 30 µM | AC50 [2]: > 30 µM | AC50 (Histamine H3 receptor): > 30 µM | AC50 [3]: > 30 µM | AC50 [4]: > 30 µM | AC50 [5]: > 30 µM | AC50 (Cannabinoid receptor 1): > 30 µM | AC50 [6]: > 30 µM | AC50 (Histamine H1 receptor): > 30 µM | AC50 [7]: > 30 µM | AC50 [8]: > 30 µM | AC50 [9]: > 30 µM | AC50 [10]: > 30 µM | AC50 (Endothelin-1 receptor): > 30 µM
Sequence: TOCOFERSOLAN
